Measured values from patent publication US20080269240A1, “Novel Adenine Compound” (priority 2005, published 2008).

molecular target: T1, human TLR7 (Homo sapiens, UniProt Q9NYK1); assay: Human TLR7 reporter assay (NF-kB-SEAP) in HEK293 cells; type: cell-based; conditions: HEK293 cells stably introduced with human TLR7 plasmid and NF-kB-SEAP reporter plasmid; cultured 20 hours with compound (1 nM-10 μM); absorbance 405 nm; read-out: Human TLR7 binding activity (EC50)
T1 construct: expressed in transfected cells; host or cells: HEK293 (hTLR7/seap-293)
T1 sequence (Q9NYK1 27-1049): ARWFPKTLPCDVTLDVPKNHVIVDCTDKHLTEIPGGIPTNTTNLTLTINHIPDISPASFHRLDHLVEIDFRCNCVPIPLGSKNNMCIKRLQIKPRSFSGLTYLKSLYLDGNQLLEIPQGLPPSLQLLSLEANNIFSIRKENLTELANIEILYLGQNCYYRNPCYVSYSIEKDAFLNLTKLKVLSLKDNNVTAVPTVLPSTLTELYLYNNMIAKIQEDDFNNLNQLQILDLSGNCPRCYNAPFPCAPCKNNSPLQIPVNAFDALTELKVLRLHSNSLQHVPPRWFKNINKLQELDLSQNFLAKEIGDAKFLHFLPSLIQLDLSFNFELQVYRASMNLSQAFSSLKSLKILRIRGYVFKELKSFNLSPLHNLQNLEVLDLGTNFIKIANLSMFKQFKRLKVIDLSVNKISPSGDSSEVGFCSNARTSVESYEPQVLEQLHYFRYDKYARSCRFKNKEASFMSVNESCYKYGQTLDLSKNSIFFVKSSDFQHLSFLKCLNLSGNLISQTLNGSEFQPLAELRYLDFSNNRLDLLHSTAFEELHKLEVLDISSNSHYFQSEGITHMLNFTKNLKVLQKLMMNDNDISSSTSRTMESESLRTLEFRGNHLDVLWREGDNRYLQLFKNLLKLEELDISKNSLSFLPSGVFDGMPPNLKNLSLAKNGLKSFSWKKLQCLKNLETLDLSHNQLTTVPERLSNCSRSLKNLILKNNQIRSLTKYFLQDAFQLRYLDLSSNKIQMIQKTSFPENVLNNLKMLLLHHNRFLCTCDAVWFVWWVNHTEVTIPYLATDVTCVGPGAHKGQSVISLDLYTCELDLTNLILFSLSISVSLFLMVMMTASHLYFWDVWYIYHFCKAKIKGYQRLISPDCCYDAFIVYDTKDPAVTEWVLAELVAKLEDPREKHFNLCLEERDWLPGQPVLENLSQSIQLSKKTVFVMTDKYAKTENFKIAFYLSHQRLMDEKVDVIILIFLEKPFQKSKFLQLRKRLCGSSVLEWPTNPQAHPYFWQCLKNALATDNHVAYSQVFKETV
Protocol: Human TLR7 Reporter Assay
HEK293 cells in which human TLR7 or rat TLR7 plasmid and reporter plasmid (NF-kB-SEAP) are stably introduced are dispersed in DMEM broth (10% FBS, 1% NEAA, 10 ug/mL blastocidin S HCl, 100 ug/mL Zeocin), and were seeded to 96 well plate per 90 μl/well (hTLR7/seap-293: 20000 cells/well, rTLR7/seap-293:25000 cells/well).
Test compound (DMSO stock solution (2 μl) was diluted with the broth (200 μl) by 100 times) was added to the seeded cells to a 96 well plate (10 μl/well) (final concentration; 1 nM-10 μM, common ratio). After stirring by tapping side of the plate, the cells were cultured in a CO2 incubator for 20 hours. A substrate (50 μl/well) for reporter assay (substrate for SEAP, pNPP) was added to cells stimulated by test sample. Ten minutes after adding the substrate, the reaction quenching solution (4N NaOH) was added by 50 μl/well to cease enzymatic reaction. Sealing a top seal A on the plate, the absorbance was measured by a micro plate reader (405 nm).

SMILES | EC50 [nM]
CCCCOc1nc(N)c2[nH]c(=O)n(CCCCCCCN3CCN(CCN(C)Cc4cccc(CC(=O)OC)c4)CC3)c2n1 [Example 21, 2-Butoxy-7,8-dihydro-9-[7-(4-{2-[N-methyl-N-(3-methoxycarbonylmethyl)benzyl]aminomethyl}piperazin-1-yl)heptyl]-8-oxoadenine] | 449
CCCCOc1nc(N)c2[nH]c(=O)n(CCCCCCCN3CCN(CCOc4cccc(CC(=O)OC)c4)CC3)c2n1 [Example 23, 2-Butoxy-7,8-dihydro-9-(7-{4-[2-(3-methoxycarbonylmethylphenyloxy)ethyl]piperazin-1-yl}heptyl)-8-oxoadenine] | 74.5
CCCCOc1nc(N)c2[nH]c(=O)n(CCCCCN3CCN(CCN(C)Cc4cccc(CC(=O)OC)c4)CC3)c2n1 [Example 20, 2-Butoxy-7,8-dihydro-9-[5-(4-{2-[N-methyl-N-(3-methoxycarbonylmethyl)benzyl]aminomethyl}piperazin-1-yl)pentyl]-8-oxoadenine] | 139
CCCCOc1nc(N)c2[nH]c(=O)n(CC3CCN(CCCNCc4cccc(CC(=O)OC)c4)CC3)c2n1 [Example 2] | 1860
CCCCOc1nc(N)c2[nH]c(=O)n(CC3CCN(CCCN(C)Cc4cccc(CC(=O)OC)c4)CC3)c2n1 [Example 1, 2-Butoxy-7,8-dihydro-9-{[2-(3-{N-[(3-methoxycarbonylmethylphenyl-1-yl)methyl]-N-methylamino}propyl)piperidin-4-yl]methyl}-8-oxoadenine] | 1620
CCCCOc1nc(N)c2[nH]c(=O)n(CCCCCN3CCN(CCOc4cccc(CC(=O)OC)c4)CC3)c2n1 [Example 22] | 198
CCCCOc1nc(N)c2[nH]c(=O)n(CCC3CCN(CCOc4cccc(CC(=O)OC)c4)CC3)c2n1 [Example 11, 2-Butoxy-7,8-dihydro-9-(1-{2-[3-(methoxycarbonylmethyl)phenoxy]ethyl}piperidin-4-ylethyl)-8-oxoadenine] | 187
COCCOc1nc(N)c2[nH]c(=O)n(CC3CCN(CC(=O)N(C)CCOc4cccc(CC(=O)OC)c4)CC3)c2n1 [Example 17, 7,8-Dihydro-2-(2-methoxyethoxy)-9-{1-[(N-(2-[3-(methoxylcarbonylmethyl)phenoxy]ethyl}-N-methyl)aminocarbonylmethyl]piperidin-4-ylmethyl}-8-oxoadenine] | 5620
CCCCOc1nc(N)c2[nH]c(=O)n(CCC3CCN(CCCN(C)CCOc4cccc(CC(=O)OC)c4)CC3)c2n1 [Example 12, 2-Butoxy-7,8-dihydro-9-{1-[3-([N-methyl-N {2 [3-(methoxycarbonylmethyl)phenoxy]ethyl}]amino)propyl]piperidin-4-ylethyl}-8-oxoadenine] | 579
CCCCOc1nc(N)c2[nH]c(=O)n(CCCCN3CCC(Oc4cccc(CC(=O)OC)c4)CC3)c2n1 [Example 29] | 713
CCCCOc1nc(N)c2[nH]c(=O)n(CC3CCN(C(=O)CN(C)CCOc4cc(CC(=O)OC)ccc4OC)CC3)c2n1 [Example 19, 2-Butoxy-7,8-dihydro-9-{1-[(N-{2-[2-methoxy-5-(methoxylcarbonylmethyl)phenoxy]ethyl}-N-methyl)aminomethylacarbonyl]piperidin-4-ylmethyl}-8-oxoadenine] | 644
CCCCOc1nc(N)c2[nH]c(=O)n(CCC3CCN(C(=O)CN(C)CCOc4cccc(CC(=O)OC)c4)CC3)c2n1 [Example 18, 2-Butoxy-7,8-dihydro-9-(2-{1-[(N-{2-[3-(methoxylcarbonylmethyl)phenoxy]ethyl)-N-methyl)aminocarbonylmethyl]piperidin-4-yl}ethyl)-8-oxoadenine] | 281
